For data set [1], the system named is PLS10 cells. The data set can be described thus: WST-1 cell viability assay. The conditions noted are these: Rattus norvegicus; 48 h, WST-1 assay, mean ± S.D.; read-out: IC50, cell proliferation of PLS10 cells. The data set is classed as cell-based. The method, then:
Figure 2 Cytotoxicity of Cur (a) and DZG (b) on PLS10 cells. Cells were treated with Cur (0–50 μM) or DZG (0–200 µM) and incubated for 48 h. Cell viability was measured by WST-1 assay. Data are represented as mean ± S.D. of three independent experiments. * p < 0.05, ** p < 0.01 and *** p < 0.001 vs. control (one-way ANOVA, Dunnett’s multiple comparisons test, tested groups vs. control group). PLS10 cells (2.0 × 10^3 cells per well) were plated in a 96-well plate for 24 h. Cur and DZG were dissolved in DMSO and diluted to the final concentration in the culture medium. After that, the culture medium containing Cur (0–50 µM) or DZG (0–200 µM) in 0.5% DMSO (vehicle control) were added into the cells. The cells were incubated in 5% CO2 at 37°C for a further 48 h, and cell viability was determined using the WST-1 colorimetric assay (Roche Diagnostics, Mannheim, Germany). In each experiment, determinations were carried out in triplicate.

Data set [2] is described as follows: In vivo pharmacokinetics and tissue distribution (HPLC). The arrangement: species or system male BALB/c mice. The conditions noted are these: for concentration at 30 min: 30 min after 100 mg/kg i.p.; for concentration at 60 min: 60 min after 100 mg/kg i.p.; for Tmax: serum, ip, read-out: time to maximum serum concentration after i.p. administration. As for the experimental part:
Figure 5 Levels of serum Cur and DZG recorded in mice after receiving a single dose of Cur or DZG (100 mg/kg body weight) by intraperitoneal (i.p.) injection. Serum concentrations of Cur and DZG were determined by high-performance liquid chromatography (HPLC) using a reversed-phase C18 column (Waters). The mobile phase values were 52% acetonitrile and 48% citric buffer. Each point represents the mean ± S.E. of three or four mice.
A comparison of the pharmacokinetics between Cur and DZG was determined using seven-week-old male BALB/c mice. The designated 32 mice were randomly divided into 3 groups, identified as the control, Cur and DZG groups. Mice were i.p. injected with 50% DMSO in NSS (vehicle control), Cur or DZG at concentrations of 100 mg/kg of body weight for each mouse. The mice were euthanized, and blood from each mouse was collected at 0, 30, 60 and 180 min after injection. Lungs, liver and kidneys were removed and frozen for detection of the levels of concentrations of Cur and DZG.
The concentrations of Cur or DZG in the serum or organ tissues were determined using the HPLC method. The tissues were homogenized in 200 μl of 50% acetonitrile and vortexed for 5 min. Samples were centrifuged at 96.5 g at 4°C for 20 min. Fifty microliters of serum or tissue homogenate was mixed with 1.5-mg/mL trichloroacetic acid in 100 µl of acetonitrile. The substance was then centrifuged at 96.5 g at 4°C for 20 min. Sixty microliters of the supernatant was collected and subjected to HPLC using a reversed-phase C18 column (Waters Corporation, Milford, MA, USA). The mobile phase was composed of 52% acetonitrile and 48% citric buffer (1% w/v citric acid, pH 3.0), and the flow rate was set at 1 mL/min. The detection wavelength for Cur and DZG were 425 and 340 nm, respectively. Concentrations of Cur and DZG in the serum were calculated and compared to the standard curve (0–3200 ng/mL). The limits of quantification for Cur and DZG were 100 and 50 ng/mL, respectively. The extraction recovery from the plasma was approximately 90% for both Cur and DZG.

Setting [3] is: male, BALB/c, mouse, kidney, intraperitoneal, 100 mg/kg body weight, mean ± S.E., read-out: tissue concentration, Kidneys.
Setting [4] is: male, BALB/c, mouse, liver, intraperitoneal, 100 mg/kg body weight, mean ± S.E., read-out: tissue concentration, Liver.
[5] abbreviates: male, BALB/c, mouse, lung, intraperitoneal, 100 mg/kg body weight, mean ± S.E., read-out: tissue concentration, Lung.
The mark [6] stands for this setting: male, BALB/c, mouse, single dose 100 mg/kg i.p., mice.
Where [7] appears, read: single dose 100 mg/kg i.p., mice.

Like-named read-outs stand apart in the source and are kept apart here.

For the compound `COc1cc(/C=C/C(=O)CC(=O)/C=C/c2ccc(O)c(OC)c2)ccc1O` [Cur, Curcumin], in data set [1], the IC50 was found to be 20.3 ± 0.58 µM. For the same compound, in data set [2] (setting [3]), the concentration at 30 min was found to be 1010 ± 550 ng/g and the concentration at 60 min is 530 ± 190 ng/g. Besides, the concentration at 30 min in data set [2] (setting [4]) stood at 2600 ± 780 ng/g. The concentration at 30 min in data set [2] (setting [5]) was 1150 ± 1300 ng/g. Besides, in data set [2] (setting [6]), the Tmax was no more than 30 min. In addition, in data set [2] (setting [7]), the maximum serum concentration came out at 2.28 ± 2.42 µg/mL and the “time at detectable concentrations in the serum after i.p. injection” value is no more than 1 h.

As to `COc1cc(/C=C/C(C)=O)ccc1O` [DZG, (E)-4-(4-hydroxy-3-methoxyphenyl)-but-3-en-2-one], the IC50 in data set [1] is 153 ± 11.8 µM. In data set [2] (setting [3]), the concentration at 30 min came out at 5920 ± 3800 ng/g and the concentration at 60 min came out at 9750 ± 4080 ng/g. Besides, the concentration at 180 min in data set [2] (male, BALB/c, mouse, kidney, intraperitoneal, 100 mg/kg body weight, 180 min after 100 mg/kg i.p., mean ± S.E., read-out: tissue concentration, Kidneys) turned out to be 860 ± 220 ng/g. For the same compound, in data set [2] (setting [4]), the concentration at 30 min was found to be 920 ± 670 ng/g and the concentration at 60 min amounted to 410 ± 110 ng/g. Besides, in data set [2] (setting [5]), the concentration at 30 min was determined as 1410 ± 740 ng/g and the concentration at 60 min worked out at 720 ± 280 ng/g. Further, the Tmax in data set [2] (setting [6]) is no more than 30 min. In data set [2] (setting [7]), the maximum serum concentration came to 4.87 ± 2.74 µg/mL, the “time at detectable concentrations in the serum after i.p. injection” value was “up to 3 h” and the “time of highest concentration in the kidneys after injection” value is 1 h.

Values taken from paper PMC7356390, “Dehydrozingerone, a Curcumin Analog, as a Potential Anti-Prostate Cancer Inhibitor In Vitro and In Vivo” (Molecules, 2020).
